In test [1] the target is T1, rhodesain (Trypanosoma brucei rhodesiense, UniProt Q95PM0).
T1 construct: made in house
The test is described as follows: Rhodesain fluorogenic enzyme assay (Cbz-Phe-Arg-AMC substrate). The class given is biochemical, T. b. rhodesiense. The method, then:
All molecules were tested towards rhodesain utilizing fluorogenic assays in the presence of Cbz-Phe-Arg-AMC as substrate. […] Firstly, all the molecules were preliminarily screened at 100 µM (Figure 1A), and DMSO and E-64 were employed as the negative and positive control, respectively. Since SPR10–SPR19 passed the initial screening (% of inhibition > 80%), they were properly diluted, in accordance with what is reported in the literature.
Rhodesain was recombinantly expressed as previously described and Cbz-Phe-Arg-AMC (10 µM) was used as the fluorogenic substrate. The rhodesain-mediated hydrolysis released the fluorescent portion AMC, and fluorescence was measured at room temperature over a period of 30 min, using an Infinite 200 PRO microplate reader, and excitation (380 nm) and emission ([…]) filters were employed. The assay buffer was composed of 50 mM sodium acetate, 5 mM EDTA, 200 mM NaCl, and 0.005% Brij 35 with a pH equal to 5.5. Similarly, the enzyme buffer contained the same chemicals as the assay, with the exception of Brij, which was replaced by 1,4-dithiothreitol (DTT). All the SPR derivatives were solubilized in DMSO, which was also used as the negative control. E-64 protease inhibitor [76] was employed as the positive control. […] Each independent assay was performed twice and in duplicate, using 96 well-plates in a total volume of […]. The first order inactivation rate constants (kobs) were determined by means of nonlinear regression analysis of the progress curves (fluorescence (F) vs. time), and the equation F = A (1 − exp(−kobst)) + B was used. The obtained kobs values were fitted vs. the concentrations of tested inhibitors, and the equation kobs = kinact [I]/(Kiapp + [I]) provided the Kiapp and kinact values. Ki values were obtained using the equation Ki = Kiapp/(1 + [S]/Km), where Km is equal to 0.9 µM [77]. Grafit software was used for the nonlinear regression analysis to calculate kinact and Ki. The second-order rate constants k2nd were directly determined as k2nd = kinact/Ki.

The subject of test [2] is T. b. brucei. Particulars: 24 h; cited from earlier work.
The target in test [3] is human Cathepsin L (hCatL) (Homo sapiens, UniProt P07711). Set-up: method as in PMID 31714776. As to conditions: unit printed in cell (PS1, Table 1); cited from earlier work.
The target in test [4] is T1, rhodesain. Set-up: method as in PMID 31714776. Particulars: lead compound; read-out: Rhodesain (TbrCatL) Ki; cited from earlier work.

SMILES strings stand for the structures.

T1 sequence (Q95PM0 entry or part of it): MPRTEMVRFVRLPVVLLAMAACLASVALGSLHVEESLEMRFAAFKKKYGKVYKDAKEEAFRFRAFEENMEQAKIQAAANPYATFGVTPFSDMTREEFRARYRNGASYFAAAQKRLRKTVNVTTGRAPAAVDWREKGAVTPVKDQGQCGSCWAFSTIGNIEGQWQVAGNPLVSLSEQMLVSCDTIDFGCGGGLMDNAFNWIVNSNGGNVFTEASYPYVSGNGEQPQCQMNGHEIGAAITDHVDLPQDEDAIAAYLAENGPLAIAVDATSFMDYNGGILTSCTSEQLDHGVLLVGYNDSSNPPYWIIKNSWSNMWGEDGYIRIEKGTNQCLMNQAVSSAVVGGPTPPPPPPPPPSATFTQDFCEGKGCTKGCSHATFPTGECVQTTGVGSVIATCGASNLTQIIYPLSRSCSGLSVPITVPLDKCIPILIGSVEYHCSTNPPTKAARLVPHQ
Chain of human Cathepsin L (hCatL) (P07711 114-333): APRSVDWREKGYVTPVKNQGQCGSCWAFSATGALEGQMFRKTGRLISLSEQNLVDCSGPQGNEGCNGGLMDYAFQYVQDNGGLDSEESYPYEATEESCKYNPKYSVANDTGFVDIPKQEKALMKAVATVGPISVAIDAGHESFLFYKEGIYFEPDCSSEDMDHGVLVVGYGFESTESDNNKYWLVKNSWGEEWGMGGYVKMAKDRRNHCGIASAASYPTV

As for `CC(=O)C=CC(CCc1ccccc1)NC(=O)C(Cc1ccccc1)NC(=O)c1ccc(F)cc1` (centres unmarked) [PS-1], the Rhodesain kinac in test [1] (Cbz-Phe-Arg-AMC 10 µM, pH 5.5, room temperature) worked out at 0.00094 ± 0.00007 min⁻¹. Moreover, the “Rhodesain k2nd” value in test [1] (k2nd = kinact/Ki) was determined as 1.397e+07 ± 1.777e+06 M⁻¹ s⁻¹. Further, the EC50 in test [2] was 5100 ± 1000 nM. Moreover, the Ki in test [3] was 1.9 ± 0.4 nM; in test [4], 0.0011 nM.

As a reminder, the EC50 is the concentration that produces a half-maximal response. Broadly, the Ki is a dissociation constant, usually derived from enzyme kinetics or from competition with a known ligand.

Values taken from publication PMC9229991, “Development of Reduced Peptide Bond Pseudopeptide Michael Acceptors for the Treatment of Human African Trypanosomiasis” (Molecules, 2022).
